Measurements taken from patent publication US20100144683A1, “METHODS FOR GENERATING MAMMALIAN MODELS OF ATOPIC DISEASES, AND SCREENING FOR THEIR TREATMENT” (ASSOCIATION POUR LA RECHERCHE A L'IGBMC (ARI), priority 2006, published 2010).

Assays:
[1] = tested on: MC903-induced TSLP expression; test: RAR antagonist on MC903-induced TSLP RNA in ears; format: in vivo, mouse; conditions: BMS493 2.5 nmoles with MC903 1.25 nmoles, daily on ears of CD1 WT mice, D3
Procedure: The RAR antagonist BMS493 (2.5 nmoles) with ethanol and with or without MC903 (1.25 nmoles) was daily topically-applied to ears of 6-8-week-old female CD1 (WT) mice. TSLP RNA levels in the ears were measured at D3.

TSLP [2] = test: TSLP RNA level (Q-PCR) in skin and organs after topical application of NR agonists; format: in vivo, mouse; conditions: for increase in TSLP transcripts at D5 / effect on TSLP expression (Q-PCR): 4 nmoles in ethanol topically on whole ears of CD1 WT mice, D1 to D4, Q-PCR on day 5
Procedure: Four nmoles of ligands dissolved in ethanol were topically applied to whole ears of 6-8-week-old female CD1 wildtype (WT) mice for 4 consecutive days (D1 to D4), and TSLP RNA levels were determined on day 5.
1α,25-(OH)2D3, or MC903 and ethanol (vehicle) were applied to WT mouse right and left ears, respectively. Two shaved areas (1 cm^2 each) of dorsal skin were also treated with MC903 or ethanol.

[3] = Calcemia and overall health upon topical application; format: in vivo; conditions: 4 nmoles topically on ears, 4 consecutive days
Procedure: 1α,25-(OH)2D3, or MC903 and ethanol (vehicle) were applied to WT mouse right and left ears, respectively. Two shaved areas (1 cm^2 each) of dorsal skin were also treated with MC903 or ethanol. […]

[4] = tested on: ears of CD1 wildtype (WT) mice; test: AD-like phenotype upon long-term ear topical treatment (appearance, histology, IHC); format: in vivo, mouse
Source text: White arrows point to the dermal/epidermal junction. FIGS. 2a and b show the ear appearance at day 17 after ethanol and MC903 treatment, respectively. FIGS. 2c and d show hematoxylin and eosin-stained (HE) ear sections of ethanol- and MC903-treated mice at day 17, respectively. Eosinophil-selective cytoplasmic red staining is pointed by arrows in the inset of (d). FIG. 2 u show hematoxylin and eosin-stained (HE) ear sections of ethanol- and 1α,25(OH)2D3 treated mice every second day, at a dose of 0.25 nmole, at day 18 (D18). FIGS. 2 e to n show the result of IHC performed on ear sections from ethanol- or MC903-treated mice at D17, with antibodies against GR1 (e and f), CD3 (g and h), CD4 (i and j), CD8 (k and l) and CD11c (m and n). Yellow color corresponds to staining of antibodies, whereas blue corresponds to DAPI staining of nuclei. FIGS. 2 o and p show the Toluidin blue (TB)-staining of ear sections. Red arrows point to one of the mast cells with intense blue color in the dermis.

TSLP [5] = test: TSLP RNA level (Q-PCR) in skin and organs after topical application of NR agonists; format: in vivo, mouse; conditions: for TSLP RNA levels in ears at D18: 0.25 nmole per ear every second day, WT mice; for dose dependence of TSLP transcripts: increasing doses (MC903: 0.4, 1 or 4 nmoles per ear)
[6] = tested on: ears of CD1 wildtype (WT) mice; test: AD-like phenotype upon long-term ear topical treatment (appearance, histology, IHC); format: in vivo, mouse; conditions: topical treatment with the RAR agonist alone

With `CC1(C)CC=C(C#Cc2ccccc2)c2cc(/C=C/c3ccc(C(=O)O)cc3)ccc21` [BMS493, (E)-4-[2-[5,6-Dihydro-5,5-dimethyl-8-(2-phenylethynyl)naphthalene-2-yl]ethen-1-yl]benzoic Acid] the “effect on MC903-induced TSLP expression” value [1] was “down-regulates”.

In the case of `C=C1/C(=C\C=C2/CCC[C@]3(C)[C@@H]([C@H](C)CCCC(C)(C)O)CC[C@@H]23)C[C@@H](O)C[C@@H]1O` [1α,25-(OH)2D3, 1,25-Dihydroxyvitamin D3], the “increase in TSLP transcripts at D5” value (TSLP [2]) is reported as > 300 fold, the hypercalcemia and survival [3] is reported as “hypercalcemia and death of the mice” and the ear appearance ([4]; MC903 4 nmoles daily or 1α,25(OH)2D3 0.25 nmole every second day, from D5, D17) is reported as “reddening and swelling, that worsened with time”. The “ear histology (hematoxylin/eosin)” value ([4]; MC903 4 nmoles daily, D17, 1α,25-(OH)2D3 0.25 nmole every other day, D18) was “inflammatory infiltrate comprising CD4+ T lymphocytes, dendritic cells, eosinophils and mast cells”, the “TSLP RNA levels in ears at D18” value (TSLP [5]) was “significantly induced” and the “TSLP RNA levels in ears at D18” value (TSLP [5]; listed as 1α,25(OH)2D3) was “increased”.

In the case of `C[C@H](CCCC(C)(C)O)[C@H]1CC[C@H]2[C@@H]3CC=C4C[C@@H](O)CC[C@]4(C)[C@H]3CC[C@]12C` [25-hydroxycholesterol], the “effect on TSLP expression (Q-PCR)” value (TSLP [2]) is reported as “no effect”.

With `C=C1/C(=C\C=C2/CCC[C@]3(C)[C@@H]([C@@H](C)OCCCC(O)(CC)CC)CC[C@@H]23)C[C@@H](O)C[C@@H]1O` [KH1060, 1α,25-(OH),-20-epi-22-oxa-24,26,27-trishomovitamin D] the “dose dependence of TSLP transcripts” value (TSLP [5]) was “similarly observed”.

For `CC1(C)CCC(C)(C)c2cc(C(O)C(=O)Nc3ccc(C(=O)O)cc3F)ccc21` (centres unmarked) [BMS961, R- and S-3-fluoro-4-[2-hydroxy-2-(5,5,8,8-tetramethyl-5,6,7,8,-tetrahydro-naphthalen-2-yl)-acetulamino]-benzoic acid], the “increase in TSLP transcripts at D5” value (TSLP [2]) was 5 fold, the “TSLP transcripts upon application on mouse ear skin” value (TSLP [2]; topical application on mouse ear skin) was “significant increase” and the “AD-like phenotype upon topical treatment on its own” value [6] was “too low to trigger an overt AD-like phenotype”.

In the case of `CC1(C)CCC(C)(C)c2cc(C3(c4ccc(C(=O)O)cc4)OCCO3)ccc21` [BMS649], the “effect on TSLP expression (Q-PCR)” value (TSLP [2]) is reported as “no effect”.

With `Cc1cc(SCc2sc(-c3ccc(C(F)(F)F)cc3)nc2C)ccc1OCC(=O)O` [GW501516] the “effect on TSLP expression (Q-PCR)” value (TSLP [2]) was “no effect”.

With `C=C1/C(=C\C=C2/CCC[C@]3(C)[C@@H]([C@H](C)/C=C/C=C/C(O)(CC)CC)CC[C@@H]23)C[C@@H](O)C[C@@H]1O` [EB1089, 1(S),3(R)-dihydroxy-20(R)-(5′-ethyl-5′-hydroxy-hepta-1′(E),3′(E)-dien-1′-yl)-9,10-secopregna-5(Z),7(E),10(19)-triene] the “dose dependence of TSLP transcripts” value (TSLP [5]) was “similarly observed”.

In the case of `CN(CCOc1ccc(CC2SC(=O)NC2=O)cc1)c1ccccn1` (centres unmarked) [Rosiglitazone], the “effect on TSLP expression (Q-PCR)” value (TSLP [2]) is reported as “no effect”.

In the case of `CC(C)OC(=O)C(C)(C)Oc1ccc(C(=O)c2ccc(Cl)cc2)cc1` [Fenofibrate], the “effect on TSLP expression (Q-PCR)” value (TSLP [2]) is reported as “no effect”.
